MIC data for two compounds are collected here from PMC9863607, “Combined Use of Antimicrobial Peptides with Antiseptics against Multidrug-Resistant Bacteria: Pros and Cons” (Pharmaceutics, 2023).

The subject of this test is E. coli ML-35p. Nature of the test: Broth microdilution assay (MIC, planktonic bacteria). Format: cell-based, Escherichia coli. The following applies: antiseptics and surfactants, MHB, overnight 37 °C, median of 3–4 independent experiments, prontosan as polyhexanide. As to the method: In this regard the test plates were preincubated for 1 h at 37 °C with 0.1% bovine serum albumin (BSA) in distilled water before use. Bacteria were grown overnight at 37 °C with shaking in 2.1% Müller–Hinton broth (MHB), and then a small aliquot was transferred into the fresh portion of the same medium for another 2–3 h on the day of the experiment to provide us with the log phase bacterial suspension. Concentration of bacterial cells in suspension was evaluated based on absorbance at 620 nm and diluted down to 1 × 10^6 CFU/mL with MHB. Equal volumes of the prepared bacterial suspension in MHB and two-fold serial dilutions of the antimicrobials in 10 mM sodium phosphate (Na-P) buffer (pH 7.4) with 0.1% BSA were mixed and incubated overnight at 37 °C. The lowest concentration where no bacterial growth was observed the next day under visual examination was considered the minimal inhibitory concentration. The test was repeated at least three times, and the final MIC value was established as a median result. Each experiment was conducted in triplicates. Terasaki microplates (10 µL end volume, V-shaped bottom; Sarstedt, Nümbrecht, Germany) were used.

In brackets after ≈: the same amount, converted by molar mass. Where two headings read alike, the source gives them in different places. Some results are limits rather than exact numbers.

Take `CC(O)(P(=O)(O)O)P(=O)(O)O` [Etidronic acid]: the MIC (Escherichia coli, ML35P, read-out: MIC) stood at 50 mg/mL (≈ 243 mM).

Turning to Cocamidopropyl betaine, the minimum inhibitory concentration (MIC) is listed as >50,000 µg/mL.
